# Data as given in patent US9434741B2, “Thieno[2,3-d]pyrimidine derivatives, preparation method and use thereof” (FUJIAN INSTITUTE OF RESEARCH ON THE STRUCTURE OF MATTER, …, priority 2012, dated 2016).
# Columns and labels:
# [1] = system: human lung cancer cell lines (A549); assay: SRB screening of inhibitory activity against human lung cancer cell lines (A549); type: cell-based; settings: A549 cells, compound concentration 1×10^−4 M, SRB method; for inhibition at 100 µM: Homo sapiens, 72 h, read-out: Inhibitory ratio (%)
# Excerpt: (§1) The inhibitory activity against colon cancer cell lines (HCT-116) and human lung cancer cell lines (A549) were screened with an SRB method. The procedure of screening was described in the reference (Li M. H., Miao Z. H., Tan W. F. et al. Clin. Cancer Res. 2004, 10(24): 8266-8274).
# (§2) Detailed experimental procedure is as follows:
# (§3) (1) According to the growth rate of tumor cells, colon cancer cell lines (HCT-116) in logarithmic growth phase were inoculated in 96-well culture plates and allowed to adhere to the wall for 24 h. The medicants with a concentration of 1×10^−4 M were added. Three replicate wells were set for the concentration, and saline control and non-apoptotic well of the corresponding concentration were set. The tumor/cancer cells were incubated for 72 hours at 37 in 5% CO2; (2) the plates were taken out, and the cells were fixed in each well with 10% cold […] (TCA) solution at 4 for 1 hour; (3) the fixation fluid was removed, and the plates were rinsed 5 times with distilled water and naturally dried in air; (4) SRB solution prepared from glacial acetic acid (1%) was added to stain at room temperature for 15 min; (5) the supernatant was removed, and the residue was washed 5 times with 1% acetic acid and air-dried; (6) finally Tris solution was added and the plates were shaken on a plate shaker for 5 min. Absorbance value at 560 nm (A560) was determined by using a wavelength-tunable microplate reader. Enzyme inhibitory ratio was calculated with the following formula: […]
# (§4) The activities of the compounds represented by formula (I) or salts thereof of inhibiting colon cancer cell lines (HCT-116) and human lung cancer cell lines A549 at a concentration of 1×10^−4 M were determined.
# [2] = system: colon cancer cell lines (HCT-116); assay: SRB screening of inhibitory activity against colon cancer cell lines (HCT-116); type: cell-based; settings: HCT-116 cells, compound concentration 1×10^−4 M, 72 hours incubation, SRB method, A560; for inhibition at 100 µM: Homo sapiens, read-out: Inhibitory ratio (%)
# Excerpt: as §1, §2, §3, §4
SMILES,inhibition at 100 µM [1],inhibition at 100 µM [2],also measured
c1ccc(-c2cc(COc3ncnc4sc5c(c34)CCCC5)on2)cc1 [Compound S-121],54.1%,–,–
Cc1csc2ncnc(OCc3cc(-c4ccc(Cl)cc4)no3)c12 [Compound S-5],80.8%,–,–
COc1ccc(-c2cc(COc3ncnc4scc(C)c34)on2)cc1 [Compound S-3],86.4%,70%,Inhibitory ratio (%) [2]: 70.0%
COc1ccc(-c2cc(COc3ncnc4sc(C)c(C)c34)on2)cc1 [Compound S-103],–,71.1%,–
Cc1csc2ncnc(OCc3cc(-c4ccc(Br)cc4)no3)c12 [Compound S-8],85.9%,–,–
Cc1ccc(-c2cc(COc3ncnc4sc(C)c(C)c34)on2)cc1 [Compound S-102],–,62.9%,–
Cc1csc2ncnc(OCc3cc(-c4ccccc4Cl)no3)c12 [Compound S-6],75.6%,–,–
CCc1cc2c(OCc3cc(-c4ccc(Br)cc4)no3)ncnc2s1 [Compound S-88],–,60.9%,–
Cc1sc2ncnc(OCc3cc(-c4ccccc4Cl)no3)c2c1C [Compound S-106],71.6%,–,–
Cc1ccc(-c2cc(COc3ncnc4scc(C)c34)on2)cc1 [Compound S-2],80%,–,–
Cc1sc2ncnc(OCc3cc(-c4ccc(Cl)cc4Cl)no3)c2c1C [Compound S-107],–,72.9%,–
CCc1cc2c(OCc3cc(-c4ccc(OC)cc4)no3)ncnc2s1 [Compound S-83],89.4%,69.6%,–
Cc1sc2ncnc(OCc3cc(-c4ccccc4)no3)c2c1C [Compound S-101],88%,68.8%,Inhibitory ratio (%) [1]: 88.0%
"Cc1csc2ncnc(OCc3cc(-c4ccccc4)no3)c12 [Compound S-1, 5-methyl-4-((3-phenyl-isoxazol-5-yl)-methoxy-)-thieno[2,3-d]pyrimidine]",85%,–,–
CCc1cc2c(OCc3cc(-c4ccc(Cl)cc4Cl)no3)ncnc2s1 [Compound S-87],–,72.7%,–
